Entries after “also recorded” stand apart in the source; their conditions may differ.
Columns and labels:
C57BL/6N mice = test: Chronic social defeat stress model, sucrose preference test; assay type: in vivo, mouse; details: stressed mice; for sucrose preference deficit, treatments during stress protocol: dose not given at the place
Description: This task, designed to measure hedonic behaviors in mice is based on the palatable nature of sucrose observed in a number of mouse strains. On the first day of the test, sucrose-naive mice were placed in individual cages at 11 am and left there with water and food for habituation period. At 5 pm one water bottle was replaced with two bottles: one containing water and another 0.8% sucrose solution. Three hours later (8 pm) the bottles were weighed to measure liquid consumption and were replaced in cages until morning. The measures of an overnight consumption were then carried out for additional day to evaluate sucrose preference. Mice were not water deprived at any moment, in order to measure spontaneous sucrose preference and exclude any potential emotional confounds induced by stress of water deprivation. The sucrose preference was expressed as the percent of sucrose solution consumed with respect to total liquid consumption.
Social defeat stress procedure was a modified version of the protocol previously described (Berton, McClung et al. 2006). C57BL/6N mice were defeated chronically for 10 consecutive days. Every day they were exposed to the physical contact with an unfamiliar CD1 aggressor in its home cage for maximal interaction time of 5 minutes. After each session of physical stress, C57BL/6N and CD1 mice were separated by a perforated wall and maintained in sensory contact for 24 h. After the last session of stress, mice were transferred into new cages and housed separately throughout the behavioral tests period. C57BL/6N control mice, similarly to the experimental animals, were housed two per cage separated by a metal perforated wall. Every day, they were exposed to the physical contact for 5 minutes.
For behavioral analysis, 9CDHROL and 9CDHBC were dissolved in ethanol, and then mixed with sunflower oil, so that the final solution contained 3% ethanol. Vehicle treatments consisted of 3% ethanol solution in sunflower oil. For memory studies treatments with 9CDHRA were administered by intraperitoneal injections at volume/weight ratio 3 ml/kg at 7 am and 7 hours before the beginning of testing. For tests with animal model of chronic social defeat, different treatments were administered […] day of stress protocol immediately after the stress session starting from day 1 of the stress protocol.
This task, designed to measure hedonic behavior in mice (Moreau, 1997), is based on the palatable nature of sucrose observed in a number of mouse strains. On the first day of the test, sucrose-naive mice were placed in individual cages at 11 am and left there with water and food for habituation period. At 5 pm one water bottle was replaced with two bottles: one containing water and another 0.8% sucrose solution. Three hours later (8 pm) the bottles were weighed to measure liquid consumption and were replaced in cages until morning. The measures of an overnight consumption were then carried out for additional day to evaluate sucrose preference. Mice were not water deprived at any moment, in order to measure spontaneous sucrose preference and exclude any potential emotional confounds induced by stress of water deprivation. The sucrose preference was expressed as the percent of sucrose solution consumed with respect to total liquid consumption.
Social defeat stress procedure was a modified version of the protocol previously described (Berton et al. 2006). C57BL/6N mice were defeated chronically for 10 consecutive days. […]

[1] = system: Rbp1−/−, Rxrγ−/− and WT mice; test: Delayed non-match to place (DNMTP) working memory task in the T-maze; assay type: in vivo, mouse
Protocol: Behaviorally naïve groups of mice were tested in the DNMTP (delayed non-match to place) procedure in the T-maze according to a protocol previously described (Wietrzych et al., 2005), with modifications to facilitate pharmacological tests (Wietrzych-Schindler et al., 2011). Spontaneous alternation was evaluated in the Ymaze apparatus according to protocol described in detail below.
Specifically, in the present protocol, animals were first trained for 10 consecutive days with minimal inter-trial intervals (ITI) of about 15 sec, which was necessary to attain the criterion of 90% or more of correct choices during […] consecutive days (days 9-10). After this period ITI was increased semi-randomly by blocks of 3-6 min during 5 consecutive days (days 11-15 indicated) to determine “test ITI” for each animal, which was defined as the shortest ITI at which mice perform at chance level. From day 16 mice were tested using corresponding “test ITI” delays following vehicle injection on the day 16 (to test for the effect of vehicle alone) and following 9CDHROL (40 mg/kg) injection on day 17. Three mice were excluded from testing since their latency to choose the arm during the retention phase exceeded 3 min in more than one trial/day on three consecutive days (exclusion criterion). On the day 18 mice were again injected (IP) with 9CDHROL (40 mg/kg) and 9 hours later sacrificed for chemical analyses. Mice which received vehicle injections on three consecutive days were used as vehicle-treated controls for analyses of 9CDHROL metabolism. An additional group of 3 naïve mice was also injected with 9CDHROL (40 mg/kg) to test for 9CDHROL metabolism following acute treatment.
In this variant, animals were first trained for 9 consecutive days of with minimal inter-trial intervals (ITI) of about 15 sec, which was necessary to attain the criterion of 90% or more of correct choices during three consecutive days (days 7-9). After this period ITI was increased semi-randomly to 180, 360, 720 and for some WT mice also 1080 seconds so that each animal was tested 6 times with each interval during four consecutive days (days 10-13 indicated). From day 13 mice were tested only twice per week beginning with training session on day one (with minimal, 15 sec ITIs) and testing pharmacological treatments on the second day. Only one pharmacological treatment was tested every 7 days. To test pro-mnemonic activities of UVI2108 and (R)-9CDHRA inventors used a minimal ITI, at which mice performed at chance level (50%) and which was 6 min for the Rbp1−/− or Rxrγ−/− groups and 12 min for most WT mice with exception of two mice tested at 18 min. Four mice (two wild types and one of each knockout line), were excluded from testing since their latency to choose the arm during the retention phase exceeded 3 min in more than one trial/day on three consecutive days (exclusion criterion).
For behavioral analysis, 9CDHROL and 9CDHBC were dissolved in ethanol, and then mixed with sunflower oil, so that the final solution contained 3% ethanol. Vehicle treatments consisted of 3% ethanol solution in sunflower oil. For memory studies treatments with 9CDHRA were administered by intraperitoneal injections at volume/weight ratio 3 ml/kg at 7 am and 7 hours before the beginning of testing. For tests with animal model of chronic social defeat, different treatments were administered by intraperitoneal injections at volume/weight ratio 3 ml/kg at 10 mg/kg for each substance between 5-6 pm every second day of stress protocol immediately after the stress session starting from day 1 of the stress protocol.
Vehicle treatments consisted of 3% ethanol and 3% DMSO solution in sunflower oil. Treatments were administered by intraperitoneal injections at volume/weight ratio 3 ml/kg between 8-10 am and 5-6 h before the test as previously validated (Wietrzych-Schindler M, 2011).

[2] = Rbp1−/− mice, ITI of 6 min, acute treatment, (R)-9CDHRA 1 or 2 mg/kg

## CC(C=CC1=C(C)CCCC1(C)C)=CC=CC(C)CC(=O)O (stereo not drawn) [9CDHRA, 9-cis-13,14-dihydroretinoic acid]
C57BL/6N mice; 1 mg/kg
  sucrose preference (anhedonia): Anhedonia was abolished
C57BL/6N mice
  sucrose preference deficit, treatments during stress protocol: prevented

## CC1=C(/C=C/C(C)=C\C=C\C(C)CCO)C(C)(C)CCC1 (stereo not drawn) [9CDHROL, 9-cis-13,14-dihydroretinol]
C57BL/6N mice; 10 mg/kg i.p. every second day of stress protocol, 10 mg/kg
  sucrose preference (anhedonia): prevented; also recorded: Anhedonia was abolished
[1]; wild type C57BL6N male mice, 40 mg/kg, 7-9 h after treatment, mean ITI of 13 min, 40 mg/kg
  working memory performance in DNMTP task: improved working memory performance; also recorded: significantly enhanced memory performance

## CC1=C(/C=C/C(C)=C\C=C\[C@H](C)CC(=O)O)C(C)(C)CCC1 [(R)-9CDHRA, (9Z,13R)-13,14-Dihydroretinoic Acid]
[1]; [2]
  working memory performance in DNMTP task: reversed working memory deficits; also recorded: improved memory performance
[1]; Rxrγ−/− mice, ITI 6 min
  correct choices in DNMTP task: 57±7 % of correct choices
[1]; WT mice, 2 mg/kg, ITI of 12 or 18 min
  correct choices in DNMTP task: about 70 % of correct choices
[1]; WT mice, ITI of 12 or 18 min
  working memory performance in DNMTP task: showed pro-mnemonic activity; also recorded: raised performance

## CC1(C)CCC(C)(C)c2cc(C3(c4ccc(C(=O)O)cc4)OCCO3)ccc21 [UVI2108, reference compound]
C57BL/6N mice
  sucrose preference deficit, treatments during stress protocol: prevented; also recorded: activities similar to 9CDHRA
[1]; [2]
  working memory performance in DNMTP task: reversed memory deficits
[1]; Rxrγ−/− mice, ITI of 6 min
  working memory performance in DNMTP task: remained ineffective
